Test results as given in US20090247646A1, “USE OF RESVERATROL AND DERIVATIVES THEREOF FOR PROMOTING THE WELLNESS STATE IN MAMMALS” (priority 2006, published 2009).
Where “and” joins values, the source holds several entries; their conditions need not be identical. Equal entries are not always repeated.

Test system: gene expression in heart tissue
Experiment: Genome-wide gene expression in heart tissue of old mice fed a resveratrol-supplemented diet (Affymetrix Mouse Genome 430 2.0 array)
Type: in vivo
[1] = anaphase-promoting complex subunit 5, Genebank ID AK003821
[2] = calreticulin 3, Genebank ID AI324734
[3] = casein kinase II, alpha 1 polypeptide, Genebank ID BB283759
[4] = cathepsin B, Genebank ID M14222
[5] = cathepsin Z, Genebank ID NM_022325
[6] = cylindromatosis (turban tumor syndrome), Genebank ID AK013508
[7] = dual specificity phosphatase 6, Genebank ID NM_026268
[8] = dynein, cytoplasmic, heavy chain 1, Genebank ID NM_030238
[9] = dystrophia myotonica kinase, B15, Genebank ID AW108486
[10] = eukaryotic translation elongation factor 2, Genebank ID BC007152
[11] = eukaryotic translation initiation factor 2, subunit 3, structural gene X-linked, Genebank ID NM_012010
[12] = eukaryotic translation initiation factor 3, subunit 10 (theta), Genebank ID AW701127
[13] = eukaryotic translation initiation factor 4, gamma 1, Genebank ID BF227830
[14] = eukaryotic translation initiation factor 4A1, Genebank ID BI656407
[15] = eukaryotic translation initiation factor 4E like 3, Genebank ID AI449084
[16] = expressed sequence AI663987, Genebank ID BB764994
[17] = expressed sequence AW319487, Genebank ID NM_054085
[18] = f-box only protein 9, Genebank ID AK018482
[19] = f-box only protein 9, Genebank ID NM_023605
[20] = furin (paired basic amino acid cleaving enzyme), Genebank ID NM_011046
[21] = gene trap locus 6, Genebank ID BG923744
[22] = glutamyl-prolyl-tRNA synthetase, Genebank ID BM238943
[23] = golgi associated, gamma adaptin ear containing, ARF binding protein 3, Genebank ID BB501734
[24] = heat shock protein 1, beta, Genebank ID BI154147
[25] = homocysteine-inducible, endoplasmic reticulum stress-inducible, ubiquitin-like domain member 1, Genebank ID AI835088
[26] = homocysteine-inducible, endoplasmic reticulum stress-inducible, ubiquitin-like domain member 1, Genebank ID NM_022331
[27] = insulin degrading enzyme, Genebank ID AV027702
[28] = isoprenylcysteine carboxyl methyltransferase, Genebank ID BF462080
[29] = large tumor suppressor 2, Genebank ID BE986745
[30] = lipocalin 7, Genebank ID BC005738
[31] = membrane metallo endopeptidase [BLAST], Genebank ID AV174022
[32] = methionyl aminopeptidase 1, Genebank ID BG064851

For Oc1ccc(/C=C/c2cc(O)cc(O)c2)cc1 [resveratrol, 3,4′,5-Trihydroxy-trans-stilbene], which “share of genes that resembled or exceeded the expression level of the young group” value (among genes changed by resveratrol treatment, heart) is on record?
Its value is 58.1%.

And the “% of res effect” value [1]?
Its value is 74.85%.

And the “Median RES” value [1]?
The value was 33166.

What about the “Median RES” value (basic leucine zipper and W2 domains 1, Genebank ID AV144956 (three lines), listed as RES) of the same compound?
Its value is 19500 and 38679 and 25745.

And the “% of res effect” value (basic leucine zipper and W2 domains 1, Genebank ID AV144956 (three lines), listed as res)?
Its value is 83.81% and 115.0685% and 138.536%.

What about the “% of res effect” value (calnexin, Genebank ID BI653492) of the same compound?
Its value is 100.0356%.

What about the “Median RES” value (calnexin, Genebank ID BI653492) of the same compound?
The value was 30204.

What about the “% of res effect” value [2] of the same compound?
Its value is 114.042%.

And the “Median RES” value [2]?
Its value is 8927.

And the “% of res effect” value [3]?
Its value is 134.9706%.

What about the “Median RES” value [3] of the same compound?
The value was 5588.

What about the “% of res effect” value [4] of the same compound?
Its value is 76.17%.

What about the “Median RES” value [4] of the same compound?
Its value is 194089.

And the “% of res effect” value [5]?
Its value is 116.4892%.

What about the “Median RES” value [5] of the same compound?
Its value is 43097.

What about the “% of res effect” value (cullin 3, Genebank ID AV273804) of the same compound?
The value was 77.09%.

And the “Median RES” value (cullin 3, Genebank ID AV273804)?
Its value is 22604.

And the “% of res effect” value [6]?
Its value is 103.8541%.

And the “Median RES” value [6]?
The value was 8255.

What about the “expression of genes involved in protein modification” value (down-regulated in the group of old animals, resveratrol group) of the same compound?
The value was “these effects were reversed”.

What about the “% of res effect” value [7] of the same compound?
The value was 107.0693%.

What about the “Median RES” value [7] of the same compound?
The value was 13740.

And the “% of res effect” value [8]?
The value was 152.317%.

What about the “Median RES” value [8] of the same compound?
Its value is 30053.

And the “% of res effect” value [9]?
Its value is 145.8017%.

What about the “Median RES” value [9] of the same compound?
Its value is 62794.

What about the “% of res effect” value [10] of the same compound?
The value was 164.0928%.

What about the “Median RES” value [10] of the same compound?
The value was 165689.

What about the “% of res effect” value [11] of the same compound?
The value was 52.7%.

And the “Median RES” value [11]?
Its value is 10650.

And the “% of res effect” value [12]?
Its value is 107.144%.

What about the “Median RES” value [12] of the same compound?
The value was 55723.

And the “% of res effect” value [13]?
The value was 137.7081%.

What about the “Median RES” value [13] of the same compound?
Its value is 73196.

And the “% of res effect” value [14]?
The value was 101.3515%.

What about the “Median RES” value [14] of the same compound?
The value was 71501.

And the “% of res effect” value [15]?
Its value is 79.59%.

And the “Median RES” value [15]?
Its value is 14990.

And the “% of res effect” value (eukaryotic translation initiation factor 4E, Genebank ID BB406487 (two lines), listed as res)?
Its value is 101.5818% and 143.9243%.

What about the “% of res effect” value [16] of the same compound?
Its value is 178.7778%.

And the “Median RES” value [16]?
Its value is 12520.

What about the “% of res effect” value [17] of the same compound?
The value was 126.3056%.

What about the “Median RES” value [17] of the same compound?
The value was 19940.

What about the “% of res effect” value [18] of the same compound?
The value was 67.8%.

And the “Median RES” value [18]?
The value was 6555.

And the “% of res effect” value [19]?
Its value is 158.6897%.

And the “Median RES” value [19]?
Its value is 48649.

And the “% of res effect” value [20]?
Its value is 190.9945%.

What about the “Median RES” value [20] of the same compound?
Its value is 8279.

And the “% of res effect” value [21]?
Its value is 134.4155%.

What about the “Median RES” value [21] of the same compound?
The value was 40130.

What about the “% of res effect” value [22] of the same compound?
The value was 85.98%.

What about the “Median RES” value [22] of the same compound?
The value was 16720.

What about the “% of res effect” value [23] of the same compound?
The value was 171.8414%.

And the “Median RES” value [23]?
Its value is 5532.

And the “% of res effect” value [24]?
Its value is 153.7873%.

And the “Median RES” value [24]?
Its value is 150912.

What about the “% of res effect” value [25] of the same compound?
The value was 127.2443%.

What about the “Median RES” value [25] of the same compound?
Its value is 90964.

What about the “% of res effect” value [26] of the same compound?
Its value is 133.1523%.

What about the “Median RES” value [26] of the same compound?
Its value is 107786.

And the “% of res effect” value [27]?
The value was 106.9366%.

What about the “Median RES” value [27] of the same compound?
The value was 25035.

And the “% of res effect” value [28]?
The value was 160.1528%.

And the “Median RES” value [28]?
Its value is 6260.

And the “% of res effect” value [29]?
Its value is 56.11%.

And the “Median RES” value [29]?
Its value is 6754.

And the “% of res effect” value [30]?
Its value is 179.6828%.

What about the “Median RES” value [30] of the same compound?
The value was 14280.

And the “% of res effect” value [31]?
Its value is 119.1558%.

What about the “Median RES” value [31] of the same compound?
Its value is 8513.

And the “% of res effect” value [32]?
The value was 80.68%.

What about the “Median RES” value [32] of the same compound?
Its value is 10496.
